Source: patent US11185068B2, “Diluent for sperm and method for preserving sperm using same” (Livestock Improvement Association of Japan, Inc., priority 2016, dated 2021)

Test system: thawed bovine sperm
Description: Semen collected from a breeding bull kept at Livestock Improvement Association of Japan was diluted with primary and secondary diluents prepared in the same manner as in Example 1 except that 30 g of fructo-oligosaccharide or 30 g of isomalto-oligosaccharide was added. The semen was diluted so that the final concentration of glycerin was 7%, thereby obtaining diluted sperm solutions. As a control group with soybean lecithin and devoid of fructo-oligosaccharide and isomalto-oligosaccharide, semen was diluted with the diluent described in Example 1 of Patent Document 4, the diluent having a final glycerin concentration of 7%. As a control group with egg yolk and devoid of fructo-oligosaccharide and isomalto-oligosaccharide, semen was diluted with the diluent described in Patent Document 1, produced and sold by Livestock Improvement Association of Japan for preparation of frozen semen, the diluent having a final glycerin concentration of 6.5%. Semen was diluted with each of these diluents so that the diluted semen contained 80 million sperm per ml. The second diluent was added to the primarily diluted semen at a ratio of 1:1 so that the semen contained 40 million sperm per ml. Straws for artificial insemination were then prepared by conventional methods. Cryopreservation was performed using liquid nitrogen by conventional methods. […]

Substance | adverse influence on the oocyte penetration ability of sperm and the development ability of fertilized embryo
fructo-oligosaccharide | substantially no adverse influence
isomalto-oligosaccharide | substantially no adverse influence
